Data reported in US20250340557A1, “PYRIMIDINE DERIVATIVE” (ASKA PHARMACEUTICAL CO., LTD., priority 2022, published 2025).

target: T1, human mPGES-1 (Homo sapiens, UniProt O14684); experiment: Test for mPGES-1 inhibitory activity (microsomal enzyme, PGE2 EIA); type: biochemical; conditions: microsomes of COS-1 cells transfected with human mPGES-1 cDNA; PGH2 1 μM; 4° C., 4 minutes; PGE2 by EIA; read-out: h mPGES1 IC50
T1 construct: made in house; host or cells: COS-1 cells (transient transfection; microsomal fraction used as enzyme)
T1 sequence (O14684 1-152): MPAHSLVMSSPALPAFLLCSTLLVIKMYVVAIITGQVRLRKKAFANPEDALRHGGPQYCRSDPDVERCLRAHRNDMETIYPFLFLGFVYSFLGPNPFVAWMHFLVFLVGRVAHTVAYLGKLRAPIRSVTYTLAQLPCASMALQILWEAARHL
How it was run: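 Enzyme source was microsomes from COS-1 cells transiently expressing human mPGES-1, in sodium phosphate pH 7.2 with 2.5 mM GSH, 1 mM EDTA and 2% DMSO final. After a 15 min preincubation with compound at 4 °C, 1 μM PGH2 (final) reacted for 4 min at 4 °C.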

Q: How did the IC50 turn out when `O=C(NCc1ccc(C(F)(F)F)c(-c2nc(C(F)(F)F)cc(=O)[nH]2)c1F)c1ccccc1C(F)(F)F` [Example 273, N-{2-fluoro-3-[6-oxo-4-(trifluoromethyl)-1,6-dihydropyrimidin-2-yl]-4-(trifluoromethyl)benzyl}-2-(trifluoromethyl)benzamide] was run?
A: The IC50 was 8.4 nM.

Q: Which IC50 does the source give for `O=C(NCc1ccc(C(F)(F)F)c(-c2nc(C(F)(F)F)cc(=O)[nH]2)c1F)c1cccc(Cl)c1Cl` [Example 274, 2,3-dichloro-N-{2-fluoro-3-[6-oxo-4-(trifluoromethyl)-1,6-dihydropyrimidin-2-yl]-4-(trifluoromethyl)benzyl}benzamide] here?
A: Its IC50 is < 1 nM.

Q: For `O=C(NCc1ccc(C(F)(F)F)c(-c2nc(C(F)(F)F)cc(=O)[nH]2)c1F)C1CCN(C(=O)Cc2ccc(F)cc2)CC1` [Example 275, N-{2-fluoro-3-[6-oxo-4-(trifluoromethyl)-1,6-dihydropyrimidin-2-yl]-4-(trifluoromethyl)benzyl}-1-[2-(4-fluorophenyl)acetyl]piperidine-4-carboxamide], which IC50 is on record?
A: Its IC50 is 0.94 nM.

Q: For `O=C(NCc1ccc(C(F)(F)F)c(-c2nc(C(F)(F)F)cc(=O)[nH]2)c1F)C1CN(C(=O)Cc2ccc(F)cc2)C1` [Example 276, N-{2-fluoro-3-[6-oxo-4-(trifluoromethyl)-1,6-dihydropyrimidin-2-yl]-4-(trifluoromethyl)benzyl}-1-[2-(4-fluorophenyl)acetyl]azetidine-3-carboxamide], which IC50 is on record?
A: Its IC50 is 24 nM.

Q: How did the IC50 turn out when `O=C(NCc1ccc(C(F)(F)F)c(-c2nc(C(F)(F)F)cc(=O)[nH]2)c1F)C1CCN(CCc2ccccc2)CC1` [Example 278, N-{2-fluoro-3-[6-oxo-4-(trifluoromethyl)-1,6-dihydropyrimidin-2-yl]-4-(trifluoromethyl)benzyl}-1-phenethylpiperidine-4-carboxamide] was run?
A: The IC50 was 35 nM.

Q: With `O=c1cc(C(F)(F)F)nc(-c2c(C(F)(F)F)ccc(CNC(=O)[C@H]3CC[C@H](c4ccc(Cl)cc4)CC3)c2F)[nH]1` [Example 279, trans-4-(4-chlorophenyl)-N-{2-fluoro-3-[6-oxo-4-(trifluoromethyl)-1,6-dihydropyrimidin-2-yl]-4-(trifluoromethyl)benzyl}cyclohexane-1-carboxamide] as the compound, how does the IC50 read?
A: The IC50 was < 1 nM.

Q: Which IC50 does the source give for `O=C(NCc1ccc(C(F)(F)F)c(-c2nc(C(F)(F)F)cc(=O)[nH]2)c1F)C1Cc2ccccc2C1` [Example 280, N-{2-fluoro-3-[6-oxo-4-(trifluoromethyl)-1,6-dihydropyrimidin-2-yl]-4-(trifluoromethyl)benzyl}-2,3-dihydro-1H-indene-2-carboxamide] here?
A: The IC50 was < 1 nM.

Q: With `O=C(NCc1ccc(C(F)(F)F)c(-c2nc(C(F)(F)F)cc(=O)[nH]2)c1F)C1(c2ccc(Cl)cc2)CCCC1` [Example 281, 1-(4-chlorophenyl)-N-{2-fluoro-3-[6-oxo-4-(trifluoromethyl)-1,6-dihydropyrimidin-2-yl]-4-(trifluoromethyl)benzyl}cyclopentane-1-carboxamide] as the compound, how does the IC50 read?
A: Its IC50 is 45 nM.

Q: How did the IC50 turn out when `O=C(Cc1ccc(C(F)(F)F)cc1)NCc1ccc(C(F)(F)F)c(-c2nc(C(F)(F)F)cc(=O)[nH]2)c1F` [Example 283, N-{2-fluoro-3-[6-oxo-4-(trifluoromethyl)-1,6-dihydropyrimidin-2-yl]-4-(trifluoromethyl)benzyl}-2-[4-(trifluoromethyl)phenyl]acetamide] was run?
A: Its IC50 is 1.5 nM.
